# Data taken from PubChem BioAssay AID1963977 (Molecular Pharmacology Branch, DTP, NCI, 2024).
# pIC50: −log10 of the molar value. Values joined by “and” are separate entries in the source; they are usually repeats but may differ in a detail not shown here. Equal values may be shown once.
# Tested on: 624824-186-R-J3-PDC multicell spheroids, viability
# Assay: Anticancer human tumor 624824-186-R-J3-PDC patient-derived colon adenocarcinoma cell line growth inhibition [PI3K]
# Conditions: for viability, T/C: stronger effect = lower value
# Source text: Combinatorial screen of targeted agents with the PI3K inhibitors inavolisib, alpelisib, duvelisib, and copanlisib in multi-cell type tumor spheroids
# A high-throughput screen of multi-cell type tumor spheroids was designed to identify active combinations of targeted small molecules and PI3K pathway inhibitors. Complex spheroids include a stromal component modeled by human endothelial cells (HUVEC) and fibroblasts modeled by human mesenchymal stem cells (MSCs). The concentration ranges selected for each drug and investigational agent were based upon clinically achievable concentrations if the clinical Cmax of the agent was known.
# Compounds. The drugs and investigational agents: inavolisib (NSC800729), alpelisib (NSC765974), duvelisib (NSC772469), copanlisib (NSC816437), ipatasertib (NSC767898), afuresertib (NSC778305), talazoparib (NSC767125), sapanisertib (NSC764658), selumetinib (NSC741078), tovorafenib (DAY101, NSC766906), vemurafenib (NSC761431), ravoxertinib (NSC781343), sotorasib (NSC818433), MRTX1133 (NSC 836407), abemaciclib (NSC 768073), palbociclib (NSC758247), venetoclax (NSC 766270), SY5609 (NSC837396), enzalutamide (NSC755605), and darolutamide (NSC825331), were obtained from the National Cancer Institute (NCI) Developmental Therapeutics Program Chemical Repository. The FDA-approved anticancer drug set is available from the NCI Developmental Therapeutics Program. […] The stock solutions were prepared in dimethyl sulfoxide (DMSO, Sigma-Aldrich, St. Louis, MO, cat. D2650) at 800-fold the tested concentration and stored at -70 degrees C prior to their use. All drugs and investigational agents were tested over a range starting from a high concentration at or near the clinical Cmax and decreasing in half-log increments. If the clinical Cmax for an agent had not been determined, the highest concentration tested was 10 microM.
# Cell Culture. All cells were maintained in an incubator at 37 degrees C and 5% CO2 with 95% humidity. The PDC lines were cultured according to standard operating procedures established by the NCI PDMR (https://pdmr.cancer.gov/sops/default.htm). All PDCs were thawed and cultured in Matrigel-coated flasks prepared with a working solution of 1X Ham's F-12 nutrient mix, without supplementation (Invitrogen, Waltham, MA, cat. 11765054), 100 U/mL penicillin-streptomycin (Invitrogen, cat. 15140122), and 2.5% Matrigel (Corning Inc., Corning, NY, cat. 354248) for the first three passages. The 354836-022-R-J1-PDC, 475296-252-R-J1-PDC, and 997726-040-R-J2-PDC lines were cultured in 6A media, which includes advanced DMEM/F-12 (Thermo Fisher Scientific, cat. 12634028), 10 mM HEPES (Thermo Fisher Scientific, cat. 15630080), 1X GlutaMAX supplement (Thermo Fisher Scientific, cat. 35050061), 0.1 mg/mL primocin (InvivoGen, San Diego, CA, cat. ant-pm-2), 10% defined fetal bovine serum, heat inactivated (HyClone Laboratories Inc., Logan, UT, cat. SH30070.03HI), 50% L-WRN conditioned media (ATCC, cat. CRL-3276), 1.25 mM N-Acetyl-L-cysteine (Sigma-Aldrich, cat. A9165), 10 mM nicotinamide (Sigma-Aldrich, cat. N0636), 1X B-27 supplement (Thermo Fisher Scientific, cat. 17504044), 1X N-2 supplement (Thermo Fisher Scientific, cat. 17502048), and 10 microM Y-27632 dihydrochloride (Tocris Bioscience, Bristol, United Kingdom, cat. 1254). The 624824-186-R-J2-PDC line was cultured in 6C/Colon 1B media, which includes all 6A media components plus 50 ng/mL human EGF recombinant protein (Thermo Fisher Scientific, cat. PHG0311). […]
# [1] = curve of first compound, second compound 0.0316 µM
# [2] = curve of first compound, second compound 0.1 µM
# [3] = curve of first compound, second compound 0.316 µM
# [4] = curve of first compound, second compound 1 µM
# [5] = second compound 0.0316 µM, first compound 0.0316 µM
# [6] = second compound 0.0316 µM, first compound 0.1 µM
# [7] = second compound 0.1 µM, first compound 0.0316 µM
# [8] = second compound 0.1 µM, first compound 0.1 µM
# [9] = second compound 0.316 µM, first compound 0.0316 µM
# [10] = second compound 0.316 µM, first compound 0.1 µM
# [11] = second compound 1 µM, first compound 0.0316 µM
# [12] = second compound 1 µM, first compound 0.1 µM
# 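Note: spheroids exposed to agents for seven days before luminescence read.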
# 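Throughout, for viability, T/C: luminescent signal used as a stand-in for spheroid viability; percent viability relative to DMSO vehicle control wells taken as 100%.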
smiles,measurement,setting,value
CC(C)n1nc(-c2ccc3oc(N)nc3c2)c2c(N)ncnc21 + COc1c(OCCCN2CCOCC2)ccc2c3n(c(=NC(=O)c4cnc(N)nc4)nc12)CCN3,pIC50,"curve of first compound, second compound 0.00316 µM",< 7.00
same,pIC50,"curve of first compound, second compound 0.01 µM",< 7.00
same,pIC50,[1],7.22
same,pIC50,[2],7.53
same,pIC50,[3],8.78
same,pIC50,[4],> 9.50
same,"viability, T/C","second compound 0.00316 µM, first compound 0.000316 µM",108%
same,"viability, T/C","second compound 0.00316 µM, first compound 0.001 µM",106%
same,"viability, T/C","second compound 0.00316 µM, first compound 0.00316 µM",106%
same,"viability, T/C","second compound 0.00316 µM, first compound 0.01 µM",99.2%
same,"viability, T/C","second compound 0.00316 µM, first compound 0.0316 µM",89.1%
same,"viability, T/C","second compound 0.00316 µM, first compound 0.1 µM",52.6%
same,"viability, T/C","second compound 0.01 µM, first compound 0.000316 µM",101%
same,"viability, T/C","second compound 0.01 µM, first compound 0.001 µM",102%
same,"viability, T/C","second compound 0.01 µM, first compound 0.00316 µM",109%
same,"viability, T/C","second compound 0.01 µM, first compound 0.01 µM",95.9%
same,"viability, T/C","second compound 0.01 µM, first compound 0.0316 µM",82.2%
same,"viability, T/C","second compound 0.01 µM, first compound 0.1 µM",52.2%
same,"viability, T/C","second compound 0.0316 µM, first compound 0.000316 µM",97.8%
same,"viability, T/C","second compound 0.0316 µM, first compound 0.001 µM",96.7%
same,"viability, T/C","second compound 0.0316 µM, first compound 0.00316 µM",91.9%
same,"viability, T/C","second compound 0.0316 µM, first compound 0.01 µM",92.3%
same,"viability, T/C",[5],63.6%
same,"viability, T/C",[6],39.2%
same,"viability, T/C","second compound 0.1 µM, first compound 0.000316 µM",83.2%
same,"viability, T/C","second compound 0.1 µM, first compound 0.001 µM",80.2%
same,"viability, T/C","second compound 0.1 µM, first compound 0.00316 µM",80.2%
same,"viability, T/C","second compound 0.1 µM, first compound 0.01 µM",72.1%
same,"viability, T/C",[7],48.3%
same,"viability, T/C",[8],27.5%
same,"viability, T/C","second compound 0.316 µM, first compound 0.000316 µM",53.5%
same,"viability, T/C","second compound 0.316 µM, first compound 0.001 µM",48.6%
same,"viability, T/C","second compound 0.316 µM, first compound 0.00316 µM",51.1%
same,"viability, T/C","second compound 0.316 µM, first compound 0.01 µM",39.2%
same,"viability, T/C",[9],31.5%
same,"viability, T/C",[10],22.2%
same,"viability, T/C","second compound 1 µM, first compound 0.000316 µM",28.5%
same,"viability, T/C","second compound 1 µM, first compound 0.001 µM",28.8%
same,"viability, T/C","second compound 1 µM, first compound 0.00316 µM",31.4%
same,"viability, T/C","second compound 1 µM, first compound 0.01 µM",23.9%
same,"viability, T/C",[11],24.9%
same,"viability, T/C",[12],18.6%
Cn1ncc(Cl)c1-c1cc(C(=O)NC(CN)Cc2cccc(F)c2)sc1Cl (stereo unspecified),"viability, T/C",compound 0.0316 µM,104% [middle of 4 runs]
same,"viability, T/C",compound 0.1 µM,101% (2×) and 112% and 104%
same,"viability, T/C",compound 0.316 µM,95.1% [middle of 4 runs]
same,"viability, T/C",compound 1 µM,76.3% [middle of 4 runs]
same,"viability, T/C",compound 3.16 µM,67.9% [middle of 4 runs]
same,pIC50,curve of compound,5.08 and < 5.00 and 5.27
Cn1ncnc1[C@H]1c2n[nH]c(=O)c3cc(F)cc(c23)N[C@@H]1c1ccc(F)cc1,"viability, T/C",compound 0.000316 µM,110% [middle of 4 runs]
same,"viability, T/C",compound 0.001 µM,100% [middle of 4 runs]
same,"viability, T/C",compound 0.01 µM,99.7% [middle of 4 runs]
same,"viability, T/C",compound 0.0316 µM,103% (2×) and 93.2% and 95.4%
same,"viability, T/C",compound 0.1 µM,98.4% [middle of 4 runs]
same,pIC50,curve of compound,< 7.00
CC(C)NCC(C(=O)N1CCN(c2ncnc3c2C(C)CC3O)CC1)c1ccc(Cl)cc1 (stereo unspecified) + CC(Nc1ncnc2nc[nH]c12)c1cc2cccc(Cl)c2c(=O)n1-c1ccccc1,pIC50,[1],< 5.00
same,pIC50,[2],< 5.00
same,pIC50,[3],< 5.00
same,pIC50,[4],< 5.00
same,pIC50,"curve of first compound, second compound 3.16 µM",5.19
same,pIC50,"curve of first compound, second compound 10 µM",5.09
same,"viability, T/C",[5],124%
same,"viability, T/C",[6],99%
same,"viability, T/C","second compound 0.0316 µM, first compound 0.316 µM",94.2%
same,"viability, T/C","second compound 0.0316 µM, first compound 1 µM",80.5%
same,"viability, T/C","second compound 0.0316 µM, first compound 3.16 µM",72.5%
same,"viability, T/C","second compound 0.0316 µM, first compound 10 µM",52.4%
same,"viability, T/C",[7],108%
same,"viability, T/C",[8],89.1%
same,"viability, T/C","second compound 0.1 µM, first compound 0.316 µM",95.5%
same,"viability, T/C","second compound 0.1 µM, first compound 1 µM",81.2%
same,"viability, T/C","second compound 0.1 µM, first compound 3.16 µM",59.9%
same,"viability, T/C","second compound 0.1 µM, first compound 10 µM",56.2%
same,"viability, T/C",[9],103%
same,"viability, T/C",[10],103%
same,"viability, T/C","second compound 0.316 µM, first compound 0.316 µM",106%
same,"viability, T/C","second compound 0.316 µM, first compound 1 µM",79.2%
same,"viability, T/C","second compound 0.316 µM, first compound 3.16 µM",59.8%
same,"viability, T/C","second compound 0.316 µM, first compound 10 µM",54.2%
same,"viability, T/C",[11],104%
same,"viability, T/C",[12],110%
same,"viability, T/C","second compound 1 µM, first compound 0.316 µM",115%
same,"viability, T/C","second compound 1 µM, first compound 1 µM",74.7%
same,"viability, T/C","second compound 1 µM, first compound 3.16 µM",62.8%
same,"viability, T/C","second compound 1 µM, first compound 10 µM",45.8%
same,"viability, T/C","second compound 3.16 µM, first compound 0.0316 µM",93%
same,"viability, T/C","second compound 3.16 µM, first compound 0.1 µM",89.7%
same,"viability, T/C","second compound 3.16 µM, first compound 0.316 µM",89.5%
same,"viability, T/C","second compound 3.16 µM, first compound 1 µM",71.6%
same,"viability, T/C","second compound 3.16 µM, first compound 3.16 µM",57.4%
same,"viability, T/C","second compound 3.16 µM, first compound 10 µM",45.7%
same,"viability, T/C","second compound 10 µM, first compound 0.0316 µM",98.2%
same,"viability, T/C","second compound 10 µM, first compound 0.1 µM",89.5%
same,"viability, T/C","second compound 10 µM, first compound 0.316 µM",80%
same,"viability, T/C","second compound 10 µM, first compound 1 µM",72%
same,"viability, T/C","second compound 10 µM, first compound 3.16 µM",56%
same,"viability, T/C","second compound 10 µM, first compound 10 µM",48.7%
